Results on 88 molecules are retold here after a melting point compilation (Tetko et al.; mined from patent text by program, amines drawn as free bases though some values may be those of a salt).

Residues, ends and D or L forms follow the SMILES beside them. Where only a bound is given, the exact number is not on record here.

The melting point is the temperature of the solid-liquid transition.

`O=C(O)Cn1c(-c2ccccc2)c(Cc2nc3c(F)c(F)cc(F)c3s2)c2ccccc21` displayed a melting point of 238 to 239 °C.

Molecule `CCCCCCCCNC(=O)Cc1c(C)cc(C(C)(C)C)c(O)c1C` returned a melting point of 101 to 104 °C. In turn, `CC(C)(C)c1ccc([N+]([O-])=S)cc1` had a melting point of 40 to 43 °C.

For `CCCCCCCCCCCCCCCCCCNC(=O)NCCSc1ccc(O)cc1`, the melting point came to 121 °C. In the case of `CS(=O)(=O)c1ccc(-c2[nH]c3ccc(Cl)cc3c2-c2ccccc2Cl)cc1` it was 300 to 302 °C; in that of `CC(=O)Nc1cc(C)c2c(n1)N(C1CC1)c1ncccc1C(=O)N2C(C)=O`, 211 to 213 °C; in that of `CC(=Cc1ccc2ccc3cccc4ccc1c2c34)c1ccc(Cl)cc1`, 162 to 164 °C. `O=C1COc2cc(CN3CCN(c4ccccc4)CC3)ccc2N1` came in with a melting point of 191 to 193 °C. In the case of `CC(=O)NCN(C(=O)CCl)C(=C(C)C)C(C)C` it was 113 to 114 °C; in that of `C[C@@H]1CNC(=O)c2cc3cc(F)cc(Br)c3n21`, 188 °C; in that of `Cc1cc(SC2=C(O)CC(CCc3ccc(O)cc3)(C3CCCC3)OC2=O)c(C(C)(C)C)cc1CO` (stereo not drawn), 199 to 201 °C. Under `CC(=O)Oc1cc(COC(=O)c2ccccc2)cnc1C` stands 57 °C; under `O=S(CCCCCl)Cc1ccc(-c2ccccc2)cc1` (stereo not drawn), 116 to 117 °C. The molecule `Cc1cc(NC(=O)C(CS)Cc2ccccc2)cc(C(=O)O)c1` (stereo not drawn) registered a melting point of 177 to 178 °C. In the case of `CC(C)(C)c1cc(CO)nn1-c1ccc(S(C)(=O)=O)cc1`, the melting point lay in the range of 143 to 146 °C.

With `CSc1ccc(CN(C2CCOCC2)S(=O)(=O)c2ccc(Cl)cc2)cc1`, the melting point was 124 to 127 °C. Under `Cc1cc2nnn(C(=O)N3CCOCC3)c2cc1C` stands 191 °C; under `O=C(c1cnccn1)N1CCN(Cc2ccc3c(c2)Cc2c(-c4ccsc4)n[nH]c2-3)CC1`, 202 to 204 °C; under `NCCOc1cccc2c1ccn2S(=O)(=O)c1ccccc1`, 71 to 73 °C. `COCOC1CCC2(C)C(=CCC3C2CCC2(C)C(COCc4ccccc4)CCC32)C1` (stereo not drawn) showed a melting point of 75 to 76 °C. Under `O=C1CC2(CCCC2)CC(=O)N1CCCCN(c1ccncc1)n1c2ccccc2c2ccccc21` stands 90 to 92 °C. Under `CS(=O)(=O)c1ccc(-c2sc(COc3ccccc3Cl)nc2-c2ccc(F)cc2)cc1` stands 189 to 191 °C.

`c1ccc(N2CCN(c3nc4cccc5c4n3CCC5)CC2)cc1` gave a melting point of 168 to 169 °C. Under `CCCON=C(C(=O)OCC)c1csc(N)n1` stands 142 to 144 °C; under `CCOP(=O)(OCC)c1c(-c2c(OC)ccc3ccccc23)cc2c(c1C)COC2`, 68 to 69.9 °C; under `COc1ccc(NC2C3CCC(CC3=O)C2(C)c2ccccc2)cc1` (stereo not drawn), 138 to 139 °C.

The molecule `COc1cc2c(-c3cc4cc(Cl)cnc4[nH]3)cn(C)c2cc1OC` came in with a melting point of 282 °C.

For the molecule `CC1(C)OC(=O)Nc2c(Br)cc(-c3cc(F)cc(C#N)c3)cc21`, the melting point lay in the range of 216 to 217 °C. In the case of `CC(C)On1c(-c2ccccc2)nc2c(N)nc3ccccc3c21` it was 188 to 191 °C; in that of `COc1cc2c(cc1OCc1ccccc1)CC(C(=O)O)NC2` (racemic), 230 to 240 °C; in that of `CCCCCNC(=O)N1CCC(c2nc(C3=NOC(c4ccccc4)C3)cs2)CC1` (stereo not drawn), 132 to 134 °C. Under `Cc1nonc1-n1cc(C(=O)O)c(=O)c2c(C)c(F)c(F)cc21` stands 200 to 202 °C; under `Cc1cc(N2CCCC2)cc2c1C(=O)OC2=O`, 222 to 225 °C; under `CCc1cccc(C)c1CNc1cc(C(=O)N(C)C)cc2c1nc(CO)n2C`, 138 to 141 °C. In the case of `CN1CCC(OC(c2cccc(SCCNC(N)=O)c2)c2nc3ccccc3[nH]2)CC1` (stereo not drawn) it was 136 °C; in that of `N#Cc1nn(-c2c(Cl)cc(C(F)(F)F)cc2Cl)c(C=O)c1SC(F)(F)F`, 90 °C.

On to `CCc1cc(OC)cc(C(=O)O)c1C(=O)OC`, for which the melting point was 116 to 118 °C. Under `CC(C(=O)NCC(=O)OCc1ccccc1)N1CCN(CC(=O)OC(C)(C)C)CCN(CC(=O)OC(C)(C)C)CCN(CC(=O)OC(C)(C)C)CC1` (stereo not drawn) stands 116 to 117 °C; under `CNC(=S)C1(c2cnc3ccccc3c2)CCCCC1=CC#N` (stereo not drawn), 108 to 111 °C; under `NS(=O)(=O)c1ccc(NC(=O)NC23CC4CC(CC(C4)C2)C3)cc1`, 270 to 275 °C. As for `CCCCCC(O)/C=C/n1ccnc1` (stereo not drawn), the melting point is 145 to 148 °C. On to `Cc1ccccc1-c1c(NC(=O)Nc2ccc(F)cc2F)cnc2sc(Cl)cc12`, for which the melting point was 225 to 226 °C. In the case of `O=C(c1ccc(-n2cncn2)cc1)N1CCC(NCCc2ccc(Cl)cc2)CC1` it was 131 to 132 °C; in that of `Cc1noc(NS(=O)(=O)c2ccc(-c3ccccn3)s2)c1Br`, 186 to 188 °C. Under `COCOc1ccc(-c2ncc3ncc(N4CCCCC4=O)cc3n2)cc1` stands 202 to 204 °C; under `O=S1(=O)CCSC(Oc2cccc(Cl)c2)=N1`, 170 °C; under `CCOC(=O)CCCN(C(=O)c1ccc(Cl)cc1)c1cccc2ccc(OC)cc12`, 92 to 94 °C. Take `Cn1c(=O)oc2cc3c(cc21)OCC31C(=O)N(C(c2ccccc2)c2ccccc2)c2ccccc21` (stereo not drawn): the melting point lay within 228 to 229 °C. Under `COC(=O)CN(CCN(CCN(CC(=O)OC)S(=O)(=O)c1ccc(C)cc1)S(=O)(=O)c1ccc(C)cc1)S(=O)(=O)c1ccc(C)cc1` stands 141 to 142 °C; under `CC(=O)Oc1ccc(C)cc1[C@H](CCN(C(C)C)C(C)C)c1ccccc1`, 126 to 130 °C; under `O=Cc1c(Cl)cc(OCCO)cc1Cl`, 83 to 85 °C. Under `CCN(C)c1nc2sc3c(NCCCN4CCCC4=O)ncnc3c2c2c1CCC(C)(C)C2` stands 166 to 167 °C. In the case of `Oc1ccc2c(c1)OCC(c1cccc(C(F)(F)F)c1)C2c1ccc(OCCN2CCCC2)cc1` (stereo not drawn) it was 87 to 89 °C; in that of `c1ccc(Oc2ccc(OCCOn3cccn3)cc2)cc1`, 83 to 85 °C; in that of `CN(C)C(=O)c1nc(-c2ccccc2)nc2c1c1cc(Cl)ccc1n2C`, 222 to 224 °C. Regarding `CC(C)(C)OC(=O)NC(C)(C)c1ccc(-c2nc(Nc3ccc(CCN4CCOCC4)cc3)ncc2C#N)cc1`, the melting point worked out at 200 °C. `OCC(O)Cn1ncc2c(N(Cc3cccc(Cl)c3)C3CCCC3)ncnc21` (stereo not drawn) registered a melting point of 98 to 100 °C. Regarding `CCCc1c(O)ccc2oc(Cc3ccc(F)cc3)c(C)c12`, the melting point lay in the range of 121 to 123 °C. In the case of `CCCCCCCCCCCCCCCCNC(=O)CCCO` it was 89.5 to 90 °C; in that of `CC1(C)OC(=S)Nc2ccc(-c3cccc(CC#N)n3)cc21`, 215 to 217 °C; in that of `Cc1c(-c2ccccc2)oc2c(SCCCCl)cccc2c1=O`, 84 to 86 °C. In the case of `OC1(c2ccc(Br)cc2)CCC2(CC1)OCCO2` it was 156 to 158 °C. The molecule `C=CCONC(O)(CC)C1C(=O)C=C(CC)OC1=O` (stereo not drawn) had a melting point of 62.5 to 64 °C. Under `CCCCCCCCCCCCCCCCCC[PH](=O)C(OCC)OCC` (stereo not drawn) stands 54 to 58 °C; under `Clc1nn2c(-c3ccccc3Br)nnc2c2ccccc12`, 203 °C; under `CCCCCCCCCCCCOc1ccc(C2SCCCS2)cc1OCCCCCCCCCCCC`, 73 to 75 °C. On to `N#Cc1cc2ccccc2n1-c1ccc(CO)cc1`, for which the melting point is greater than 270 °C. Under `CS(=O)(=O)c1ccc(-c2nc(C(F)(F)F)sc2-c2ccc(F)cc2)cc1` stands 150 to 151 °C; under `COc1ccc(NC(=O)c2ccc(-c3ccc(C(=O)N4CCC4)cc3C)cc2)cc1N1CCN(C)CC1`, 167 to 170 °C; under `COc1ncccc1C(=O)N(C(C)C)C(C)C`, 109 °C. `C[C@H](N)C(=O)N1CCC[C@H]1C(=O)O` (H-Ala-Pro-OH) showed a melting point of 106 to 132 °C. Under `CCOC(=O)c1cn(C)c2cnc3cc(F)c(N4CCC[C@H]4CNc4ccccc4)cc3c2c1=O` stands 170 °C; under `COc1ccc(N2C(=O)CCN(C)c3ccc(Cl)cc32)cc1`, 144 to 145 °C; under `COC(=O)c1nc(-c2ccc(Cl)c(OC)c2F)cc(N)c1Cl`, 141 to 143 °C. As for `COc1ccc(OC)c(Cc2cnc3nc(N)nc(N)c3c2C)c1`, the melting point is 252 to 254 °C. Under `O=C(O)c1ccc2c(c1)OC(c1cc(F)cc(F)c1)(c1cc(F)cc(F)c1)O2` stands 96 °C; under `CCCc1nc2c(N)nc3cc(-c4cccc(CN)c4)ccc3c2s1`, 168 to 171 °C; under `Nc1cc(C=O)nc(CC2CC2)c1F`, 99 to 100 °C. The molecule `Cc1nc(N)c2nc(C)n(Cc3cc(-c4ccc(F)cc4)no3)c2c1C` displayed a melting point of 278 to 279 °C. For the molecule `CNC(=O)CN(c1ccc(Cl)cc1Cc1c(F)cccc1F)S(=O)(=O)c1ccc(OC)c(OC)c1`, the melting point came to 92.9 °C. `Cc1cc(C)cc(C(=O)N2CCN(C(=O)CNC3CCN(CCCc4ccccc4)CC3)C(c3ccc(Cl)c(Cl)c3)C2)c1` (racemic) yielded a melting point of 52 to 54 °C. Under `Nc1nc(N)c2ncn(COCCOCCO)c2n1` stands 76 to 82 °C; under `Oc1cccc(-c2n[nH]c3ncnc(Nc4cccc(Cl)c4)c23)c1`, 118 to 119 °C; under `CONC(=O)Cc1cccc(C(=O)c2ccc(Cl)cc2)c1C`, 150 °C.

With `CCCCN1Cc2[nH]c3ccccc3c2C1`, the melting point lay within 151 to 152 °C. Under `CSc1cc(C)c2ccc(N)nc2n1` stands 204 to 209 °C; under `COC(=O)C(C)(C)Oc1ccc2c(=O)n(CC(C)C)c(CNC(=O)OC(C)(C)C)c(-c3ccccc3)c2c1`, 207 to 209 °C. In the case of `CCCCC(Oc1c(Br)cc(-c2ccc(-c3c(Cc4ccccc4)oc4ccccc34)cc2)cc1Br)C(=O)O` (stereo not drawn) it was 75 to 76 °C.
